Measured values published in patent US4771076A, “[(2-substituted 1,2-dihydro-1-oxo-1H-inden-5-yl)oxy]alkanesulfonic acids and salts thereof” (Merck & Co., Inc., priority 1987, dated 1988).

Test system: cerebrocortical cat brain tissue slice
Assay: In vitro Cerebrocortical Cat Brain Tissue Slice Assay (inhibition of HCO3^- -stimulated swelling)
Assay type: cell-based
Settings: Felis catus, 1 h, 27 mM K^+, 10 mM HCO3^-, 37° C., 60 min incubation
Experimental: See, e.g., Bourke et al., Neurochem. Res., 8, 5 (1983), and Cragoe et al., J. Med. Chem., 25, 567 (1982).
In Vitro Cerebrocortical Cat Brain Tissue Slice Assay
Adult cats of 2-3 kg body weight were employed in tissue slice studies. Prior to sacrifice, the animals were anesthetized with ketamine hydrochloride, 10 mg/kg intramuscularly. Eight (three control, five experimental) pial surface cerebrocortical tissue slices (0.5 mm thick; approximately 150 mg initial fresh weight) were cut successively with a calibrated Stadie-Riggs fresh tissue microtome without moistening and weighed successively on a torsion balance. […]
Following the 60-minute incubation period, tissue slices were separated from incubation medium by filtration, reweighed, and homogenized in 1N HClO4 (10% w/v) for electrolyte analysis. […] Control slice swelling is expressed as microliters per gram initial preswelling fresh weight. The effectiveness of an inhibitor at a given concentration was measured by the amount of HCO3^- -stimulated swelling that occurred in its presence, computed as a percent of the maximum possible and is reported as an IC50, (See, e.g., Table I (Example 6)). Tissue and media Na^+ and K^+ levels were determined by emission flame photometry with Li^+ internal standard; Cl^- levels were determined by amperometric titration. Tissue viability during incubation is monitored by manometry.

IC50 [nM] | SMILES
20 | CC1(C2CCCC2)Cc2cc(OCCCS(=O)(=O)O)c(Cl)c(Cl)c2C1=O (single isomer, unassigned) [Example 2, Sodium (+)3-[(6,7-dichloro-2-cyclopentyl-2-methyl-1-oxo-2,3-dihydro-1H-inden-5-yl)oxy]propanesulfonate hydrate]
20 | CC1(C2CCCC2)Cc2cc(OCCCS(=O)(=O)O)c(Cl)c(Cl)c2C1=O (centres unmarked) [Example 1, Sodium 3-[(6,7-dichloro-2-cyclopentyl-2-methyl-1-oxo-2,3-dihydro-1H-inden-5-yl)oxy]propanesulfonate hydrate]
